Assay results from patent US7279183B2, “Method of reducing thrombosis and complications after arterial angioplasty using stent coated with magnesium-based compound” (Cedars-Sinai Medical Center, priority 2001, dated 2007).
Where two headings read alike, the source gives them in different places.

Columns and labels:
[1] = tested on: acute platelet-dependent stent thrombosis; assay: ex-vivo porcine arteriovenous shunt model of high-shear stent thrombosis (thrombus weight); assay type: in vivo, swine
Description: An experiment according to one embodiment of the present invention was performed using an ex-vivo model that primarily examines shear-mediated, platelet-dependent thrombus formation. This experiment allowed for the evaluation of the effects of magnesium, and the time-dependent nature thereof, on acute platelet-dependent stent thrombosis in an ex-vivo porcine arteriovenous shunt model of high-shear blood flow.
(§2) Experiments were performed in 10 swine weighing 25 to 30 kg. […] The right carotid artery and jugular vein were isolated and cannulated with 8F sheaths to establish an extracorporeal circuit as described previously. […] Arterial blood gases and pH were monitored periodically and maintained at normal levels by adjustment of the ventilation rate and tidal volume. Invasive arterial pressure measurement, oxygen saturation, ECG, and rectal temperature were monitored continuously. A thermostatically controlled blanket was used to maintain temperature at 37° C. Venous blood was collected for baseline platelet aggregation, complete blood cell count, and activated clotting time (ACT) measurements.
All animals received heparin at a dose of 10 U/kg as a bolus before the study to prevent thrombotic occlusion of catheters and tubing. […]

[2] = in vivo
Description: as §2
All animals received heparin at a dose of 10 U/kg as a bolus before the study to prevent thrombotic occlusion of catheters and tubing. […] At the conclusion of the experiment, blood was collected for complete blood cell counts, the carotid artery and jugular vein were ligated, and the animals were allowed to recover from anesthesia before being returned to the vivarium. Each animal was studied twice with a minimum interval of 2 weeks between each experiment.
At the end of each treatment, control stents were perfused to ensure return of stent thrombus weights towards baseline pre-treatment values. Effects on thrombus weight (TW), whole-blood platelet aggregation (PA), bleeding time (BT), activated clotting time (ACT), serum magnesium level, and complete blood count (CBC) were quantified at various time points as shown in the protocol schematic. Mean arterial blood pressure (MABP) and heart rate (HR) were monitored and recorded throughout the protocol.

[3] = activated clotting time (ACT), Hemochron 400; assay type: in vivo, swine
Description: In the experiment discussed herein that was conducted according to one embodiment of the present invention, ACT was determined using a Hemochron 400 (International Technidyne Corp.) machine in standard fashion. See Makkar R R, Litvack F, Eigler N L, Nakamura M, Ivey P A, Forrester J S, Shah P K, Jordan R E, Kaul S, Effects of GP IIb/IIIa Receptor Monoclonal Antibody (7E3), Heparin, and Aspirin in an Ex Vivo Canine Arteriovenous Shunt Model of Stent Thrombosis, Circulation, 1997; 95(4): 1015-1021; and Makkar R R, Eigler N L, Kaul S, Nakamura M, Forrester J S, Herbert J-M, Litvack F I, Effects of clopidogrel, aspirin and combined therapy in a porcine ex vivo model of high-shear induced stent thrombosis, Eur Heart J, 1998; 19:1538-1546.

[4] = tested on: acute platelet-dependent stent thrombosis; conditions: 10 U/kg bolus, average of 200 U per swine; cited from earlier work
[5] = bleeding time from thigh incision; assay type: in vivo, swine
Description: Bleeding time is defined as the time from the creation of an incision to the point where bleeding from the incision ceases. In the experiment according to one embodiment of the present invention discussed herein, bleeding time was measured from an incision on the ventral surface of the thigh with a No. 11 surgical knife.

platelet aggregation = assay: whole blood aggregometry, agonist-induced platelet aggregation; assay type: cell-based, swine; conditions: for platelet aggregation: 3 pigs
Description: Thirty minutes after administration of the heparin (in the heparin alone) or magnesium, 3 mL venous blood was collected in a siliconized test tube containing 0.3 mL of 0.129 molar sodium citrate or sodium heparin (Becton Dickinson Vacutainer System). Whole blood aggregometry (Chronolog Corp.) was used to measure collagen (2 and 5 μg/mL)- and Adenosine diphosphate (2.5 μM)-induced platelet aggregation. Aggregation was expressed as maximal increase in electrical impedance measured in ohms at 6 minutes after the addition of agonist.

[6] = magnesium sulfate intravenously, ANOVA
Description: The graph in FIG. 3 was generated by taking between 10 and 14 observations at each time point. The MABP was measured in millimeters of mercury (mmHg). The heart rate was measured in beats per minute (BPM).

[7] = complete blood cell count; conditions: data not shown
[8] = serum magnesium level, magon dye method; assay type: in vivo, swine; conditions: in words, FIG. 5
Description: Serum magnesium levels for the test subjects were measured spectrophotometrically using the magon dye method. See Elm R J, Determination of serum magnesium concentration by clinical laboratories, […], 1991-92:60-6.

platelets = conditions: cited from earlier work
in-stent thrombosis = tested on: in-stent thrombosis
Description: (§1) Twenty one low-risk patients undergoing non-acute percutaneous coronary intervention with stent implantation received a two gm bolus of intravenous MgSO4 followed by a 1.5 gm/hour infusion for four hours and a 1 gm/hour infusion for the next eight hours. […] The preset primary endpoints for this experiment were: acute thrombotic occlusion and need for platelet IIb/IIIa inhibitors bailout, death, myocardial infarction, recurrent ischemia and need for urgent revascularization at 48 hours and 30 days. The secondary safety endpoints included hypotension, bradycardia, bleeding complications and heart block within the first 24 hours.

[9] = Description: as §1
[10] = in words, beyond the heparin effect

## heparin
[1]; given alone, magnesium both early and late groups
  effect on thrombus formation (FIG. 2(a)): reduce thrombus formation slightly
[1]; heparin alone, 50 U/kg IV bolus then 25-50 U/kg/hr, versus pre-treatment, mean±SD
  reduction of stent thrombus weight (TW): 48±16%
[2]
  effect on hematocrit: no significant effects
  effect on platelet counts: no significant effects
  effect on white blood cell counts: no significant effects
[3]; prolonged from 109±8 seconds, P<0.01
  ACT: 185 ± 36 s
[4]
  effect on thrombus formation at high-shear conditions: negligible effects
[5]; in vivo
  bleeding time: 5.3±0.6
Platelet aggregation; heparin alone, 6 minutes after agonist, baseline 25±3
  platelet aggregation (maximal increase in electrical impedance): 24±6 ohms

## O=S(=O)([O-])[O-].[Mg+2] [Mg, magnesium sulfate]
[6]; listed as Magnesium
  effect on heart rate: no significant effects
  effect on mean arterial blood pressure (MABP): no significant effects
[6]; listed as magnesium
  effect on heart rate: no statistically significant effects
  effect on mean arterial blood pressure (MABP): no statistically significant effects
[7]
  effect on hematocrit: no significant effects
  effect on platelet counts: no significant effects
  effect on white blood cell counts: no significant effects
[3]; [10]
  effect on activated clotting time (ACT): no significant effects
[8]
  serum magnesium levels compared to control: higher
platelets
  concentration at which anti-adhesive effect may occur: < 4 mEq/L
  concentration at which anti-aggregatory effect may occur: > 5 mEq/L
[5]; [10]
  effect on bleeding time: no significant effects
Platelet aggregation; ADP (2.5 μM), data not shown
  effect on platelet aggregation: no effect
Platelet aggregation; FIG. 5, 5 μg/mL collagen, with addition of magnesium, from 25±3, not significant
  whole-blood platelet aggregation: 21±5 ohms
Platelet aggregation; Mg-late alone, 6 minutes after agonist, baseline 25±3
  platelet aggregation (maximal increase in electrical impedance): 22±3 ohms
Platelet aggregation; Mg-treated animals, >40 minutes post-bolus (Mg-late)
  platelet aggregation (maximal increase in electrical impedance): 21.0±5 ohms
Platelet aggregation; Mg-treated animals, within 20 minutes post-bolus (Mg-early)
  platelet aggregation (maximal increase in electrical impedance): 23±4 ohms
Platelet aggregation; citrate-stabilized blood, post-Mg (25±3 pre)
  platelet aggregation: 22±3 ohms
Platelet aggregation; collagen 2 μg/ml, data not shown
  effect on platelet aggregation: no effect
Platelet aggregation; heparin-stabilized samples, post-Mg (26±2 pre)
  platelet aggregation: 27±2 ohms
Platelet aggregation; in words, listed as Magnesium
  effect on platelet aggregation: no significant effects
Platelet aggregation; in words, listed as magnesium
  effect on platelet aggregation: no significant effect
in-stent thrombosis; 21 patients
  GP IIb/IIIa inhibitors bailout: no case
  death: not seen
  myocardial infarction: not seen
  urgent revascularization: not seen
in-stent thrombosis; all cases, 21 patients
  coronary artery blood flow at end of intervention: normal coronary artery blood flow (TIMI 3 flow)
in-stent thrombosis; human subjects
  hemostatic or hemodynamic complications: without any hemostatic or hemodynamic complications
[9]; patients, IV MgSO4
  effect on heart rate: did not have a significant effect
  effect on mean arterial blood pressure: did not have a significant effect
[9]; post-bolus (2 gm IV MgSO4), baseline 2.1±0.3, P<0.0001
  serum magnesium level: 3.2 ± 0.3 mg/dL
[9]; post-infusion (total 16 gm)
  serum magnesium level: 3.5 ± 0.8 mg/dL
